Reference: the NIST ThermoML archive (doi:10.1016/j.jct.2005.04.010)
Numbers after ± are expanded uncertainties.

Experiment: activity coefficient (dimensionless); of the first substance listed, at infinite dilution; xn = mol fraction of the nth substance listed
Settings: Liquid, x1 = 0

SMILES | activity coefficient (303.15 K, dilutor) | activity coefficient (313.15 K, dilutor) | activity coefficient (323.15 K, dilutor) | activity coefficient (333.15 K, dilutor) | activity coefficient (303.15 K, Chromatography) | activity coefficient (313.15 K, Chromatography) | activity coefficient (323.15 K, Chromatography) | activity coefficient (333.15 K, Chromatography)
CCCCCCC [heptane] + CCCC[N+]1(C)CCCC1.O=S(=O)([N-]S(=O)(=O)C(F)(F)F)C(F)(F)F | 20.7 ± 1 | 19.3 ± 1 | 18.2 ± 0.9 | 17.2 ± 0.9 | – | – | – | –
C=CCCCC [hex-1-ene] + CCCCCCCCn1cc[n+](C)c1.O=S(=O)([N-]S(=O)(=O)C(F)(F)F)C(F)(F)F | 3.33 ± 0.17 | 3.3 ± 0.17 | 3.27 ± 0.16 | 3.23 ± 0.16 | 3.29 ± 0.15 | 3.27 ± 0.15 | 3.18 ± 0.14 | 3.18 ± 0.14
C=CCCCC [hex-1-ene] + CCCCCC[n+]1ccn(C)c1.O=S(=O)([N-]S(=O)(=O)C(F)(F)F)C(F)(F)F | 4.64 ± 0.23 | 4.56 ± 0.23 | 4.48 ± 0.22 | 4.39 ± 0.22 | 4.71 ± 0.21 | 4.61 ± 0.21 | 4.48 ± 0.2 | 4.44 ± 0.2
C=CCCCC [hex-1-ene] + CCCC[N+]1(C)CCCC1.O=S(=O)([N-]S(=O)(=O)C(F)(F)F)C(F)(F)F | 7.08 ± 0.35 | 6.92 ± 0.35 | 6.82 ± 0.34 | 6.64 ± 0.33 | – | – | – | –
CCCCCC [hexane] + CCCCCCCCn1cc[n+](C)c1.O=S(=O)([N-]S(=O)(=O)C(F)(F)F)C(F)(F)F | 5.44 ± 0.27 | 5.26 ± 0.26 | 5.13 ± 0.26 | 4.97 ± 0.25 | 5.32 ± 0.24 | 5.13 ± 0.23 | 4.92 ± 0.22 | 4.8 ± 0.22
CCCCCC [hexane] + CCCCCC[n+]1ccn(C)c1.O=S(=O)([N-]S(=O)(=O)C(F)(F)F)C(F)(F)F | 7.82 ± 0.39 | 7.55 ± 0.38 | 6.96 ± 0.35 | 6.55 ± 0.33 | 8.23 ± 0.38 | 7.82 ± 0.36 | 7.48 ± 0.34 | 7.27 ± 0.33
CCCCCC [hexane] + CCCC[N+]1(C)CCCC1.O=S(=O)([N-]S(=O)(=O)C(F)(F)F)C(F)(F)F | 13.8 ± 0.7 | 13.3 ± 0.7 | 12.1 ± 0.6 | 11 ± 0.6 | – | – | – | –
CO [methanol] + CCCCCCCCn1cc[n+](C)c1.O=S(=O)([N-]S(=O)(=O)C(F)(F)F)C(F)(F)F | – | – | – | – | 1.23 ± 0.04 | 1.14 ± 0.03 | 1.03 ± 0.03 | 0.96 ± 0.03
CO [methanol] + CCCCCC[n+]1ccn(C)c1.O=S(=O)([N-]S(=O)(=O)C(F)(F)F)C(F)(F)F | – | 1.16 ± 0.06 | 1.14 ± 0.06 | 1.05 ± 0.05 | 1.3 ± 0.04 | 1.19 ± 0.04 | 1.1 ± 0.03 | 1.02 ± 0.03
C=CCCCCCC [oct-1-ene] + CCCCCCCCn1cc[n+](C)c1.O=S(=O)([N-]S(=O)(=O)C(F)(F)F)C(F)(F)F | – | – | – | – | 5.57 ± 0.25 | 5.48 ± 0.25 | 5.32 ± 0.24 | 5.28 ± 0.24
C=CCCCCCC [oct-1-ene] + CCCCCC[n+]1ccn(C)c1.O=S(=O)([N-]S(=O)(=O)C(F)(F)F)C(F)(F)F | 8.28 ± 0.41 | 8.08 ± 0.4 | 7.92 ± 0.4 | 7.77 ± 0.39 | 8.81 ± 0.4 | 8.47 ± 0.39 | 8.18 ± 0.38 | 7.9 ± 0.36
C=CCCCCCC [oct-1-ene] + CCCC[N+]1(C)CCCC1.O=S(=O)([N-]S(=O)(=O)C(F)(F)F)C(F)(F)F | 15 ± 0.8 | 13.9 ± 0.7 | 13.3 ± 0.7 | 13.2 ± 0.7 | – | – | – | –
CCCCCCCC [octane] + CCCCCCCCn1cc[n+](C)c1.O=S(=O)([N-]S(=O)(=O)C(F)(F)F)C(F)(F)F | – | – | – | – | 8.92 ± 0.41 | 8.43 ± 0.39 | 8.14 ± 0.37 | 7.82 ± 0.36
CCCCCCCC [octane] + CCCCCC[n+]1ccn(C)c1.O=S(=O)([N-]S(=O)(=O)C(F)(F)F)C(F)(F)F | 14.4 ± 0.7 | 14.1 ± 0.7 | 13.1 ± 0.7 | 12.8 ± 0.6 | 15.2 ± 0.7 | 14.3 ± 0.7 | 13.5 ± 0.6 | 13 ± 0.6
CCCCCCCC [octane] + CCCC[N+]1(C)CCCC1.O=S(=O)([N-]S(=O)(=O)C(F)(F)F)C(F)(F)F | 28.3 ± 1.4 | 26.5 ± 1.3 | 25.2 ± 1.3 | 23.7 ± 1.2 | – | – | – | –
CCCC(C)=O [pentan-2-one] + CCCCCC[n+]1ccn(C)c1.O=S(=O)([N-]S(=O)(=O)C(F)(F)F)C(F)(F)F | – | – | – | – | 0.51 ± 0.03 | 0.52 ± 0.03 | 0.54 ± 0.03 | 0.55 ± 0.03
CCCC(C)=O [pentan-2-one] + CCCC[N+]1(C)CCCC1.O=S(=O)([N-]S(=O)(=O)C(F)(F)F)C(F)(F)F | 0.63 ± 0.03 | 0.66 ± 0.03 | 0.68 ± 0.03 | 0.71 ± 0.04 | – | – | – | –
CCCCC [pentane] + CCCCCCCCn1cc[n+](C)c1.O=S(=O)([N-]S(=O)(=O)C(F)(F)F)C(F)(F)F | 3.98 ± 0.2 | 3.92 ± 0.2 | 3.87 ± 0.19 | 3.84 ± 0.19 | 4.07 ± 0.19 | 3.94 ± 0.18 | 3.78 ± 0.17 | 3.6 ± 0.16
CCCCC [pentane] + CCCCCC[n+]1ccn(C)c1.O=S(=O)([N-]S(=O)(=O)C(F)(F)F)C(F)(F)F | 5.93 ± 0.3 | 5.67 ± 0.28 | 5.48 ± 0.27 | 5.27 ± 0.26 | 5.95 ± 0.27 | 5.76 ± 0.26 | 5.65 ± 0.26 | 5.52 ± 0.25
CCCCC [pentane] + CCCC[N+]1(C)CCCC1.O=S(=O)([N-]S(=O)(=O)C(F)(F)F)C(F)(F)F | 9.22 ± 0.46 | 9.18 ± 0.46 | 8.62 ± 0.43 | 8.29 ± 0.41 | – | – | – | –
CCCO [propan-1-ol] + CCCCCCCCn1cc[n+](C)c1.O=S(=O)([N-]S(=O)(=O)C(F)(F)F)C(F)(F)F | – | – | – | – | 1.67 ± 0.07 | 1.51 ± 0.06 | 1.35 ± 0.05 | 1.24 ± 0.04
CCCO [propan-1-ol] + CCCCCC[n+]1ccn(C)c1.O=S(=O)([N-]S(=O)(=O)C(F)(F)F)C(F)(F)F | – | – | – | – | 1.9 ± 0.08 | 1.71 ± 0.07 | 1.57 ± 0.06 | 1.45 ± 0.05
CC(C)O [propan-2-ol] + CCCCCC[n+]1ccn(C)c1.O=S(=O)([N-]S(=O)(=O)C(F)(F)F)C(F)(F)F | 1.72 ± 0.09 | – | 1.37 ± 0.07 | 1.23 ± 0.06 | 1.71 ± 0.07 | – | 1.44 ± 0.05 | 1.33 ± 0.05
CC(C)O [propan-2-ol] + CCCC[N+]1(C)CCCC1.O=S(=O)([N-]S(=O)(=O)C(F)(F)F)C(F)(F)F | 2.11 ± 0.11 | 1.92 ± 0.1 | 1.77 ± 0.09 | 1.63 ± 0.08 | – | – | – | –
C1CCOC1 [tetrahydrofuran] + CCCCCC[n+]1ccn(C)c1.O=S(=O)([N-]S(=O)(=O)C(F)(F)F)C(F)(F)F | – | – | – | – | 0.49 ± 0.03 | 0.51 ± 0.03 | 0.53 ± 0.03 | 0.55 ± 0.03
